For this assay, the system named is rats having a myocardial infarction due to a restriction of the coronaries. In words: Oxygen consumption in damaged tissues of rats with myocardial infarction (acute occlusion of blood vessels). Type of assay: in vivo. The following applies: conventional oxygen treatment by inhalation by means of a cannula, monitored for five days. The protocol: The oxygen enriched solutions of the invention were tested on experimental animals subjected to an acute occlusion of blood vessels which provoked degenerative changes of the interested tissues.
An oxygen enriched physiological solution of 0.3 cc having an oxygen partial pressure of 2 bar was intravenously administered at a rate of 1 g/min twice a days to a first group of 5 rats having a myocardial infarction due to a restriction of the coronaries. A second group of rats with the same disease, was subjected to a conventional oxygen treatment by inhalation by means of a cannula.
The results of the treatment were monitored and scheduled for five days. The first group of animals, treated by administering a solution in accordance with an embodiment of the present invention consumed 20% of oxygen in the damaged tissues whereas the second group which received the oxygen by inhalation consumed only 5% of oxygen in the damaged tissues.

Structures are written as SMILES.

Regarding `O=O` [oxygen], the “oxygen consumed in the damaged tissues” value stood at 5%.

Values taken from patent US20030232114A1, “Method for liquid enrichment with oxygen and applications of enriched liquids” (priority 2002, published 2003).
